Measured values as given in publication PMC8154124, “Design, Synthesis, Anticancer Evaluation, Enzymatic Assays, and a Molecular Modeling Study of Novel Pyrazole–Indole Hybrids” (ACS Omega, 2021).

How the values were obtained:
[1] = system: human colorectal carcinoma (HCT-116); test: MTT cytotoxicity assay, HCT-116; type: cell-based; conditions: 48 h, mean ± SD
Experimental: (§1) The cells of human liver carcinoma (HepG2), human breast adenocarcinoma (MCF-7), human colorectal carcinoma (HCT-116), and human lung carcinoma (A549) were purchased from the American Type Culture Collection (Rockville, MD). All cells were maintained in a Dulbecco’s modified Eagle’s medium (DMEM), which was supplemented with 10% of heat-inactivated fetal bovine serum (FBS) and 100 U/mL penicillin and streptomycin each. The cells were grown at 37 °C in a humidified atmosphere of 5% CO2.
(§2) The cytotoxicity activities on the human liver carcinoma (HepG2), human breast adenocarcinoma (MCF-7), human colorectal carcinoma (HCT-116), and human lung carcinoma (A549) cell lines were estimated employing the 3-(4,5-dimethyl-2-thiazolyl)-2,5-diphenyl-2H-tetrazolium bromide (MTT) assay, which was grounded on the reduction of the tetrazolium salt by mitochondrial dehydrogenases in viable cells.[51],[52] The cells were dispensed in a 96-well sterile microplate (3 × 10^4 cells/well), followed by their incubation at 37 °C with a series of different concentrations of 10 μL of each compound or doxorubicin (positive control, in DMSO) for 48 h in a serum-free medium prior to the MTT assay. Subsequently, the media were carefully removed, and 40 μL of MTT (2.5 mg/mL) was added to each well and then incubated for an additional 4 h. Purple formazan dye crystals were solubilized by the addition of 200 μL of DMSO. The absorbance was measured at 570 nm using a SpectraMax Paradigm Multi-Mode microplate reader. The relative cell viability was expressed as the mean percentage of viable cells relative to the untreated control cells. All experiments were conducted in triplicate and were repeated on three different days. All of the values were represented as mean ± standard deviation (SD). The IC50s were determined by the SPSS probit analysis software program (SPSS Inc., Chicago, IL).

[2] = system: human breast adenocarcinoma (MCF-7); test: MTT cytotoxicity assay, MCF-7; type: cell-based; conditions: MCF7, 48 h, mean ± SD
Experimental: as §1, §2

[3] = system: human liver carcinoma (HepG2); test: MTT cytotoxicity assay, HepG2; type: cell-based; conditions: 48 h, mean ± SD
Experimental: as §1, §2

[4] = system: human lung carcinoma (A549); test: MTT cytotoxicity assay, A549; type: cell-based; conditions: 48 h, mean ± SD
Experimental: as §1, §2

HepG2 cancer cells [5] = test: Annexin V/PI apoptosis detection by flow cytometry; type: cell-based, human; conditions: negative control DMSO 1.49%
Experimental: The induction of apoptosis has been investigated using the annexin V/propidium iodide (PI) staining assay for both compounds 7a and 7b on HepG2.
(§3) Cell cycle analysis and apoptosis detection were carried out using flow cytometry.[62] Both HepG2 and MCF-7 cells were seeded at 8 × 10^4 and incubated at 37 °C and 5% CO2 overnight. After treatment with the tested compounds for 24 h, cell pellets were collected and centrifuged (300g, 5 min). For cell cycle analysis, the cell pellets were fixed with 70% ethanol on ice for 15 min and collected again. The collected pellets were incubated with propidium iodide (PI) staining solution (50 μg/mL PI, 0.1 mg/mL RNaseA, 0.05% Triton X-100) at room temperature for 1 h and analyzed using a Gallios flow cytometer (Beckman Coulter, Brea, CA). Apoptosis detection was performed using a FITC annexin V/PI commercial kit (Becton Dickenson, Franklin Lakes, NJ) following the manufacturer’s protocol. The samples were analyzed using fluorescence-activated cell sorting (FACS) with a Gallios flow cytometer (Beckman Coulter, Brea, CA) within 1 h after staining. Data were analyzed using Kaluza v1.2 (Beckman Coulter).

HepG2 cancer cells [6] = test: Cell cycle analysis by flow cytometry (PI staining); type: cell-based, human; conditions: for accumulation of cells at the Pre G1 phase, fold compared to the control / increase in S phase, fold compared to the reference control / reduction in the percentage of cells at the G2/M phase, fold: HepG2, 7a and 7b at 7.9 and 6.1 μM respectively, 24 h; for %preG / %DIP G2/M / %DIP G1 / %DIP S: HepG2, Figure 3; for %preG: negative control 1.49%; for %DIP G2/M: negative control 9.7%; for %DIP G1: negative control 43.72%; for %DIP S: negative control 46.58%
Experimental: To elucidate whether the cytotoxic activity is due to suppression of cell cycle progression, HepG2 cells were exposed to compounds 7a and 7b at concentrations of 7.9 and 6.1 μM, respectively, for 24 h and analyzed using flow cytometry. […] These compounds also provided a slight increase in S phases by 0.1- and 0.14-fold, respectively, compared to the reference control, as shown in Figure 3.
as §3

caspase-3 = test: Caspase-3 (active) ELISA in treated HepG2 cells; type: cell-based, human; conditions: for caspase-3 activation, fold higher than the negative control: HepG2, 7a and 7b at 7.9 and 6.1 μM respectively, 24 h; for caspase-3: HepG2 cells treated 24 h, cont. HepG2 67.3 ± 2.8
Experimental: It has been reported that caspases cascade through either intrinsic or extrinsic pathways that mediate the induction of apoptosis, which may lead to apoptotic cell death.[53]−[55] Caspase-3 is involved in cell shrinkage, chromatin condensation, and DNA fragmentation inside the cells, causing apoptosis induction.
Activities of caspase-3 were measured using the Invitrogen caspase-3 (Active) (human) ELISA kit, Catalog # KHO1091 (96 tests) (Invitrogen Corporation) according to the manufacturer’s instructions.

Bcl-2 = Bcl-2 ELISA in treated HepG2 cells; type: cell-based, human; conditions: for Bcl-2 level relative to control, fold: HepG2, versus control; for Bcl-2: HepG2 cells treated, cont. HepG2 6.222 ± 0.14
Experimental: Furthermore, it is well known that the antiapoptotic Bcl-2 protein plays a critical role in cancer resistance therapy.[56] Therefore, we have studied the effect of both compounds 7a and 7b on Bcl-2 protein expression levels. They provided a 0.5- and 0.4-fold decrease in the Bcl-2 concentration, respectively.
Activities of Bcl-2 were measured using the Invitrogen Zymed Bcl-2 ELISA Kit, Catalog # 99–0042 (96 tests) (Invitrogen Corporation) according to the manufacturer’s instructions.

Bax = Bax ELISA in treated HepG2 cells; type: cell-based, human; conditions: cont. HepG2 5.762 ± 1.18
Experimental: In addition, the pro-apoptotic protein (Bax) is a protein that accelerates apoptosis by binding to and antagonizing the death repressor activity of Bcl-2.[57] Following any apoptotic stimuli, Bax causes activation of caspase-3 and perpetuates the apoptotic cascade.[58] The Bax protein expression level is altered in various human malignancies.[59],[60] Therefore, the effect of both compounds 7a and 7b on the Bax expression level has been studied.
Activities of Bax were measured using the Human Bax ELISA kit (DRG Human Bax ELISA (EIA-4487) DRG International, Inc.) according to the manufacturer’s instructions.

CDK-2 enzyme = CDK-2 enzyme (Homo sapiens, UniProt P24941); test: In vitro CDK-2 enzyme inhibitory assessment (ELISA); type: biochemical
Experimental: Estimation of CDK-2 was performed using ELISA through an affinity tag labeled capture antibody and a reporter conjugated detector antibody, which immunocapture the sample analyte in solution. The addition of the standard and samples to the wells is carried out, followed by the addition of the antibody mix. After the incubation period is completed, the wells are washed, and the unrestrained substance is discarded. Then, TMB (3,3′,5,5′-tetramethylbenzidine) substrate is added, and prompted by horseradish peroxidase (HRP), blue coloration appeared. The reaction was stopped by the addition of a stop solution, completely changing the color from blue to yellow. Signals were created equivalently to the quantity of the bound analyte, and the intensity was recorded at a certain wavelength (450 nm) using a Robonik P2000 ELISA reader. The concentrations of the tested compounds were calculated from the plotted curve.

Row | SMILES | IC50 [1] [µM] | IC50 [2] [µM] | IC50 [3] [µM] | IC50 [4] [µM] | total necrosis and apoptosis (early and late) percentage (HepG2 cancer cells [5]) [%] | accumulation of cells at the Pre G1 phase, fold compared to the control (HepG2 cancer cells [6]) [fold] | increase in S phase, fold compared to the reference control (HepG2 cancer cells [6]) [fold] | reduction in the percentage of cells at the G2/M phase, fold (HepG2 cancer cells [6]) [fold] | %preG (HepG2 cancer cells [6]) [%] | %DIP G2/M (HepG2 cancer cells [6]) [%] | %DIP G1 (HepG2 cancer cells [6]) [%] | %DIP S (HepG2 cancer cells [6]) [%] | caspase-3 activation, fold higher than the negative control (caspase-3) [fold] | caspase-3 (caspase-3) [pg/mL] | Bcl-2 level relative to control, fold (Bcl-2) [fold] | Bcl-2 (Bcl-2) [ng/mL] | Bax (Bax) [pg/mL] | IC50 (CDK-2 enzyme) [µM]
1 | Cc1ccc(NC(=O)c2c(Nc3ccccc3)n[nH]c2N=Cc2c[nH]c3ccccc23)cc1 [7b, 5-((1H-Indol-3-yl)methyleneamino)-3-(phenylamino)-N-(4-methylphenyl)-1H-pyrazole-4-carboxamide] | 19.6 ± 3.5 | 14.5 ± 2.5 | 7.9 ± 1.9 | 14.1 ± 2.1 | 27.51 | 18.5 | 0.14 | 29.4 | 27.51 | 0.33 | 46.39 | 53.28 | 5.8 | 469.8 ± 10 | 0.4 | 2.479 ± 0.07 | 272.6 ± 11.5 | 0.095 ± 0.1
2 | O=C(Nc1ccccc1)c1c(Nc2ccccc2)n[nH]c1N=Cc1c[nH]c2ccccc12 [7a, 5-((1H-Indol-3-yl)methyleneamino)-N-phenyl-3-(phenylamino)-1H-pyrazole-4-carboxamide] | 17.4 ± 3.2 | 10.6 ± 2.3 | 6.1 ± 1.9 | 23.7 ± 3.1 | 22.18 | 14.9 | 0.1 | 2.4 | 22.18 | 4.11 | 44.61 | 51.28 | 7 | 388.7 ± 7 | 0.5 | 3.123 ± 0.1 | 211.3 ± 5.9 | 0.074 ± 0.15
